Earlier results on 1 sequence are cited in US20230346708A1, “STABLE FORMULATIONS OF ANTI-CANCER PEPTIDES” (Oncolyze, Inc., priority 2020, published 2023).

The data set relates to cancer cells. To be noted: cancer cells vs normal cells; general statement, no data shown.

“ETFSDLWKLLKKWKMRRNQFWVKVQRG [PNC-28, p53 aa17-26-MRP anti-cancer peptide]”: the Tumor cell necrosis entry is recorded as “induce tumor cell necrosis of cancer cells, but not normal cells”.
